One test has as its target T1, human factor Xa (Homo sapiens, UniProt P00742).
T1 construct: purchased Enzyme Research Laboratories (South Bend, Indiana)
Put plainly: In vitro inhibition of purified factor Xa (p-nitroanilide substrate hydrolysis, Ki determination). It counts as biochemical. The note with it: for Ki: substrate N-benzoyl-Ile-Glu-Gly-Arg-p-nitroanilide hydrochloride, pH 7.5, 37° C., read-out: Ki against factor Xa. The text has this: (§1) Reagents: All buffer salts were obtained from Sigma Chemical Company (St. Louis, Mo.), and were of the highest purity available. The enzyme substrates, N-benzoyl-Phe-Val-Arg-p-nitroanilide (Sigma B7632), N-benzoyl-Ile-Glu-Gly-Arg-p-nitroanilide hydrochloride (Sigma B2291), N-p-Tosyl-Gly-Pro-Lys-p-nitroanilide (Sigma T6140), N-succinyl-Ala-Ala-Pro-Phe-p-nitroanilide (Sigma S7388) and N-CBZ-Val-Gly-Arg-p-nitroanilide (Sigma C7271) were obtained from Sigma. N-succinyl-Ala-Ala-Pro-Arg-p-nitroanilide (BACHEM L-1720) and N-succinyl-Ala-Ala-Pro-Val-p-nitroanilide (BACHEM L-1770) were obtained from BACHEM (King of Prussia, Pa.).
(§2) Human α-thrombin, and human factor Xa were obtained from Enzyme Research Laboratories (South Bend, Indiana). Bovine α-chymotrypsin (Sigma C4129), bovine trypsin (Sigma T8642) and human kidney cell urokinase (Sigma U5004) were obtained from Sigma. Human leukocyte elastase was obtained from Elastin Products (Pacific, Mo.).
(§3) Ki Determinations: All assays are based on the ability of the test compound to inhibit the enzyme catalyzed hydrolysis of a peptide p-nitroanilide substrate. […] In general, substrate concentrations are lower than the experimentally determined value for Km. […]
(§4) In a typical Ki determination, into each well of a 96 well plate is pipetted […] of substrate solution, […] of test compound solution, and the plate allowed to thermally equilibrate at 37° C. in a Molecular Devices plate reader for >15 minutes. Reactions were initiated by the addition of a […] aliquot of enzyme and the absorbance increase at 405 nm is recorded for 15 minutes. […] The ratio of the velocity (rate of change in absorbance as a function of time) for a sample containing no test compound is divided by the velocity of a sample containing test compound, and is plotted as a function of test compound concentration. The data are fit to a linear regression, and the value of the slope of the line calculated. The inverse of the slope is the experimentally determined Ki value. […]

For the next test, the target named is T2, Human α-thrombin (Homo sapiens, UniProt P00734).
T2 construct: Human α-thrombin, and human factor Xa were obtained from Enzyme Research Laboratories; purchased Enzyme Research Laboratories (South Bend, Indiana)
In words: In vitro inhibition of purified thrombin (p-nitroanilide substrate hydrolysis, Ki determination). It counts as biochemical. To be noted: substrate N-succinyl-Ala-Ala-Pro-Arg-p-nitroanilide, pH 7.5, 37° C.; read-out: Ki against thrombin.
From the text: as §1, §2, §3, §4

This is an account of results in patent publication US6962942B2, “Azacycloalkanone serine protease inhibitors” (3-Dimensional Pharmaceuticals, Inc., priority 1999, dated 2005).

As a reminder, the Ki is a measure of affinity in units of concentration, obtained from inhibition or displacement.

T1 sequence (P00742 235-488 limits assumed): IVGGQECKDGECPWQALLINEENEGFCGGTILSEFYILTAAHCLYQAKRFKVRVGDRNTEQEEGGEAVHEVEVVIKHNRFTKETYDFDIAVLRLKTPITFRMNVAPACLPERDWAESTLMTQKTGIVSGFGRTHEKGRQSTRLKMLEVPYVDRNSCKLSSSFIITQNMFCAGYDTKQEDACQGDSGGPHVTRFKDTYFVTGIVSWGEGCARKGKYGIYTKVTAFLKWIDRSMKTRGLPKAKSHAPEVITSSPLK
T1 sequence (P00742 41-179 partner limits assumed): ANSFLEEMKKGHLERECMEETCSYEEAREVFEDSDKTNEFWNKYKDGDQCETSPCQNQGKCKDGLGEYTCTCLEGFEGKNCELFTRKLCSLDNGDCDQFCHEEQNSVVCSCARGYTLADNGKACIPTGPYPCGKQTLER

As to `N=C(N)NOCCNC(=O)CN1CCC[C@H](NS(=O)(=O)Cc2ccccc2)C1=O` [Example 2], the “activity against factor Xa” value at human factor Xa (at a concentration of 10 μM) is “no activity”. For the same molecule, the Ki at Human α-thrombin came to 0.7 µM.

For the molecule `COc1ccc(S(=O)(=O)N[C@H]2CCCN(CC(=O)NCCONC(=N)N)C2=O)cc1` [Example 11], the Ki was determined as 2.1 µM at human factor Xa and 1.2 µM at Human α-thrombin.

For the molecule `N=C(N)NOCCNC(=O)CN1CCC[C@H](NS(=O)(=O)c2ccc(-c3ccc4ccccc4c3)cc2)C1=O` [Example 42], the inhibition constant (Ki) on human factor Xa came to 0.36 µM; at Human α-thrombin, 6.4 µM.
